Results reported in BigSolDB 2.1.

c1ccc(CSSCc2ccccc2)cc1
Details | solubility (mole fraction)
in chloroform, 284.95 K | 0.102
in chloroform, 288.75 K | 0.131
in chloroform, 292.75 K | 0.16
in chloroform, 298.65 K | 0.208
in chloroform, 302.6 K | 0.246
in chloroform, 308.15 K | 0.291
in ethanol, 284.7 K | 0.000168
in ethanol, 289.45 K | 0.000398
in ethanol, 294.45 K | 0.000905
in ethanol, 299.55 K | 0.0019
in ethanol, 303.25 K | 0.00301
in ethanol, 308.25 K | 0.00524
in ethyl acetate, 285.55 K | 0.0332
in ethyl acetate, 289.95 K | 0.05
in ethyl acetate, 293.65 K | 0.0667
in ethyl acetate, 298.8 K | 0.0963
in ethyl acetate, 303.65 K | 0.131
in ethyl acetate, 308.4 K | 0.164
in n-hexane, 284.25 K | 0.000922
in n-hexane, 288.35 K | 0.0019
in n-hexane, 294.45 K | 0.00448
in n-hexane, 298.25 K | 0.00739
in n-hexane, 303.65 K | 0.0137
in n-hexane, 309.05 K | 0.0223
in toluene, 283.45 K | 0.0521
in toluene, 288.16 K | 0.0769
in toluene, 292.65 K | 0.103
in toluene, 299.35 K | 0.162
in toluene, 303.15 K | 0.198
in toluene, 308.65 K | 0.248
